Reference: paper PMC11116084 (Journal of Applied Glycoscience, 2024)

System: ALMAN (Allium cepa α-mannosidase)
Assay: p-nitrophenol release, absorption at […] nm
Assay type: biochemical
Details: 20 mM sodium acetate pH 4.0, 40 °C (standard assay)

Q: For `O=[N+]([O-])c1ccc(O[C@H]2O[C@H](CO)[C@@H](O)[C@H](O)[C@@H]2O)cc1` [pNP-α-Man], which Km is on record?
A: The Km was 1.69 mM.
